# Where “and” joins values, the source holds several entries; their conditions need not be identical. Equal entries are not always repeated.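 Exposure lasted 48 hours, with cells grown in 96-well plates and compounds tested at five concentrations. The concentration for 50% growth inhibition is given as GI50. TGI marks complete inhibition of growth.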 *1 amine or outer side, *2 acyl side, *3 side chain or, on linkers, in order; H or OH if unused. Where a SMILES comes first, the peptide text is derived from it. [ ]: non-standard residue; d: D form. X56 = CC[C@H](C)[C@H](OC(=O)[C@@H](C)[C@@H](CC)N[*:1])C(=O)[*:2]; X32 = C[C@H](N[*:1])C(=O)C(C)(C)C(=O)[*:2]; NMeY = CN[C@@H](Cc1ccc(O)cc1)C(=O)O; NMeL = CN[C@@H](CC(C)C)C(=O)O; NMeV = CN[C@H](C(=O)O)C(C)C
# How the values were obtained:
# Assay in all cases: NCI tumour cell line growth inhibition, 48 h
# IGROV1 ovarian = system: IGROV1 ovarian
# UO-31 renal = system: UO-31 renal
# K-562 leukemia = system: K-562 leukemia
# HOP-92 NSCLC = system: HOP-92 NSCLC
# SNB-78 CNS = system: SNB-78 CNS
# SF-268 CNS = system: SF-268 CNS
# A498 renal = system: A498 renal
# DMS 273 small cell lung = system: DMS 273 small cell lung
# PC-3 prostate = system: PC-3 prostate
# HS 578T breast = system: HS 578T breast
Compound,TGI (IGROV1 ovarian),TGI (UO-31 renal),TGI (K-562 leukemia) [µM],TGI (HOP-92 NSCLC),TGI (SNB-78 CNS) [µM],TGI (SF-268 CNS) [µM],TGI (A498 renal),TGI (DMS 273 small cell lung) [µM],GI50 (IGROV1 ovarian) [µM],TGI (PC-3 prostate) [µM],GI50 (K-562 leukemia) [µM],GI50 (HOP-92 NSCLC) [µM],GI50 (SF-268 CNS) [µM],GI50 (A498 renal) [µM],GI50 (UO-31 renal) [µM],GI50 (DMS 273 small cell lung) [µM],TGI (HS 578T breast) [µM],GI50 (HS 578T breast) [µM],GI50 (PC-3 prostate) [µM]
N#C/C(=C\c1ccc(C(O)P(=O)(O)O)cc1)C(N)=O (stereo not given),> 100 µM,> 100 µM,> 100,> 100 µM,> 100,> 100,> 100 µM,> 100,,,,,,,,,,,
Cn1cnc([N+](=O)[O-])c1Sc1nnnn1-c1ccccc1,33.7 µM,27.9 µM,19.9,13 µM,34.2,39.4,38.9 µM,29,,,,,,,,,,,
S=c1nc(N2CCCCC2)ss1,58.5 µM,39.6 µM,52.1,36.7 µM,99.1,49.5,43.3 µM,42.3,,,,,,,,,,,
O=c1c2cccnc2ncn1CCN1CCCC1,> 100 µM,> 100 µM,> 100,> 100 µM,> 100,> 100,,> 100,,,,,,,,,,,
NNC(=O)/C(NC(=O)c1ccccc1)=C(\N)c1ccc(Cl)cc1,> 100 µM,> 100 µM,> 100,> 100 µM,> 100,> 100,> 100 µM,> 100,,,,,,,,,,,
CC1(O)CCC2(C#N)CCC1C2O (stereo not given),> 100 µM,> 100 µM,> 100,,> 100,> 100,> 100 µM,> 100,,,,,,,,,,,
Cc1c2c(cc3c(=O)ccn(CCN(C)C)c13)c(=O)ccn2CCN(C)C,37 µM,34.3 µM,44.9,31.3 µM,> 100,21.8,38 µM,16.3,,,,,,,,,,,
COc1cc2c(c(OC)c1OC)-c1ccc(OC)c(=O)cc1[C@@H](N(C)C=O)CC2,> 100 µM,> 100 µM,> 100,0.111 µM,> 100,> 100,0.665 µM,> 100,,,,,,,,,,,
CC[C@H](C)[C@@H]1OC(=O)[C@@H](C)[C@@H](CC)NC(=O)[C@H](C)NC(=O)C(C)(C)C(=O)[C@H](C)NC(=O)[C@H](Cc2ccc(OC)cc2)N(C)C(=O)[C@H](C(C)C)N(C)C(=O)CNC(=O)[C@H](CC(C)C)N(C)C(=O)CNC1=O (cyclo(A[X56]G[NMeL]G[NMeV][NMeY](Me)[X32])),0.306 µM and 0.102 µM,0.383 µM and 0.428 µM,0.634,0.238 µM and 0.0316 µM,,,1.38 µM and 0.197 µM,0.072,0.0193,6.85,< 0.0322,0.0156,< 0.0161,0.0398,,,,,
CCOC(=O)/C(=C\c1ccc[nH]1)C(=O)c1ccccc1,,> 100 µM,> 100,> 100 µM,> 100,> 100,,> 100,,,,,,,,,,,
CCC(C(=O)c1ccccc1)C(CCCC(=O)Nc1c(C)cccc1C)N=O (stereo not given),> 100 µM,> 100 µM,> 100,> 100 µM,> 100,> 100,> 100 µM,> 100,,,,,,,,,,,
C1COCCOCCOCCOCCO1.CC(=O)[CH-]C(C)=O.CC(=O)[CH-]C(C)=O.CC(=O)[CH-]C(C)=O.[V],22.5 µM,61.4 µM,71.4,44.7 µM,,65.8,66.3 µM,34.8,4.79,,29.1,11.2,20.6,25,32.5,15.7,,,
COc1ccc(OC)c2c(=S)c3ccccc3[nH]c12,> 100 µM,> 100 µM,> 92.6,> 100 µM,,> 100,> 100 µM,> 100,,> 100,,,,,,,> 100,,
CC(C)C(=O)/C=C/c1ccc(Cl)c(Cl)c1,40.4 µM,27.2 µM,72.2,34.7 µM,> 100,40.4,62.1 µM,,,,,,,,,,,,
N#CC1CC2(C(=O)C1=O)c1ccccc1-c1ccccc12 (stereo not given),> 100 µM,> 100 µM,> 100,,,> 100,> 100 µM,> 100,,,,,,,,,,,
CC/C=C/c1cc2cc[nH]c2c2c1C(C)C[C@@H]2C (stereo not given in full),> 100 µM,69.6 µM,65.9,62.6 µM,67,,32.7 µM,,,,,,,,,,,,
C=CCn1cc(C(=O)NC(=O)NCCCCCOC(=O)CCCCCCCCCCC(=O)OCCCCCNC(=O)NC(=O)c2cn(CC=C)c(=O)n(C)c2=O)c(=O)n(C)c1=O,> 100 µM,> 100 µM,> 100,> 100 µM,> 100,> 100,> 100 µM,> 100,,,,,,,,,,,
c1ccc(COC2(OCc3ccccc3)CC3OC2C2NN=NC32)cc1 (stereo not given),76.3 µM,99.2 µM,38.6,40.8 µM,86.3,51,> 100 µM,53.4,,,,,,,,,,,
CN1CCN(c2ccc(C(=O)Nc3cc(-c4cccc(NS(=O)(=O)c5ccccc5)c4)[nH]n3)cc2)CC1,21.9 µM,27.8 µM,19.4,16.2 µM,,25.7,9.75 µM,,2.64,33.2,2.89,2.54,5.51,0.505,6.26,,10.4,1.7,10.2
CNCCCNCCCN1C(=O)c2ccc3c4c(ccc(c24)C1=O)C(=O)N(CCCNCc1ccccc1OC)C3=O,6.04 µM,27.5 µM,2.9,8.05 µM,,9.02,8.91 µM,,1.45,10.1,0.408,2.13,1.03,1.54,5.88,,28.5,3.02,1.6
O=C(c1ccc(Cl)cc1)c1ccc(OCCSCCCCCCCCCCSCCOc2ccc(C(=O)c3ccc(Cl)cc3)cc2)cc1,> 100 µM,> 100 µM,> 100,> 100 µM,> 100,> 100,> 100 µM,> 100,,,,,,,,,,,
C1=Nc2ccccc2C=Nc2ccccc2C=Nc2ccccc2C=Nc2ccccc21.[Cl-].[Pt+2],49.5 µM,45.5 µM,93.7,48.7 µM,,75.9,61.5 µM,55.5,18.8,,3.61,19.3,25.1,23.2,20.8,19,,,

# — PubChem BioAssay (NCI)
